Laboratory results from patent publication US20250283113A1, “COMPOSITIONS AND METHODS FOR INCREASING DELETION EFFICIENCY OF NUCLEIC ACID SEGMENT BY MODULATION OF NHEJ REPAIR PATHWAY” (GenKOre, Inc., priority 2022, published 2025).

Legend:
[1] = test system: XRCC4; assay: qRT-PCR of shRNA-mediated inhibition of NHEJ component gene expression (Example 3); format: cell-based, human; conditions: AC16 cells, 5 μg shRNA plasmid, 3 days after transfection, FIG. 6
Experimental: (§1) Purification of total RNA was performed, and reverse transcription of total 1 μg RNA was performed with Superscript IV reverse transcriptase (INVITROGEN) using random hexamers. For real-time PCR, 1/20 of the RT product was amplified with the KAPA SYBR FAST qPCR kit (KAPA BIOSYSTEM, Wilmington, MA, USA) using the real-time cycler Quantstudio (THERMO FISHER SCIENTIFIC). The relative amount of mRNA transcripts was measured by the […]. GAPDH and 18s rRNA were used as endogenous controls.
(§2) 5 μg of plasmid vector encoding shRNA was prepared using All-in-one vector (Biofact), transfected into AC16 cells, and harvested 3 days after transfection. Then, mRNA expression of each NHEJ component gene was measured by qRT-PCR. […] The sequences of sense strands of the shRNAs used are described in Table 9.

[2] = test system: XRCC4; assay: Western blot of shRNA-mediated inhibition of NHEJ component gene expression (Example 4); format: cell-based, human; conditions: AC16 cells, conditions as Example 3, FIG. 7
Experimental: (§3) Cell extracts were prepared by scraping cells with 60 to 80 μl of RIPA Lysis and Extraction Buffer (THERMOFISHER, 89900) containing protease inhibitor cocktail (ROCHE, 11836153001) at 4° C. and kept on ice for 10 minutes. The concentration of the cleared lysate was measured by Bradford assay (BIO-RAD), in which 20 to 65 μg of protein lysate, depending on the target protein, was loaded onto Mini-PROTEAN® TGX™ Precast Protein Gels (BIO-RAD), electrophoresed, and transferred to PVDF membranes using the Trans-Blot Turbo Transfer System (BIO-RAD). The membrane was incubated at room temperature for 1 hour in a blocking solution containing 5% non-fat dry milk in TBS-T and then incubated at 4° C. overnight with primary antibodies in TBS-T. After incubation with primary antibodies, the membrane was washed four times with TBS-T and then incubated at room temperature for 1 hour in a blocking solution containing anti-rabbit or anti-mouse immunoglobulin conjugated with HRP. The membrane was additionally washed four times with TBS-T and specific protein complexes were visualized with ECL prime (CYTIVA). Antibodies used were against KU70 (CST, 4588S), DNA ligase IV (CST, 146495), XLF (CST, 2854S), Artemis (CST, 13381), GAPDH (CST, 2118L), and XRCC4 (THERMO, MA5-24383).
(§4) shRNA-mediated inhibition of gene expression was analyzed by Western blot analysis. The experimental conditions were the same as in Example 3. […] As a result, the Western blot results were consistent with the qRT-PCR results.

[3] = test system: Dclre1c; assay: qRT-PCR of murine Dclre1c mRNA after shRNA treatment in Hepa-1c1c7 cells (Example 11); format: cell-based, mouse; conditions: shRNA under U6 promoter, FIG. 14
Experimental: as §1
shRNAs for the Dclre1c gene encoding mouse Artemis protein were selected in Hepa-1c1c7 cells. The shRNAs, which are expressed under the U6 promoter, were generated, and qRT-PCR was performed to measure of the Dclre1c mRNA levels. […] The thus selected shRNAs can be used for in vivo studies using mouse models (for example, DMD mouse model with endogenous murine Dclre1c gene).

[4] = test system: Dystrophin Exon 51, E51; assay: Quantification of large-scale deletion of E51 by qPCR in HEK293T cells (Example 7); format: cell-based, human; conditions: 3 days, shRNA + UnCas12f1 + gRNA pair F142/R52, qPCR, compared among shDCLRE1C-2, -3, -5, FIG. 10A
Experimental: Quantitative real-time PCR was used to quantify genomic DNA. Primer sequences were designed for each of the E51 internal regions where large-scale deletion occurs. For qPCR, 20 ng of gDNA was amplified with the KAPA SYBR FAST qPCR kit (KAPA BIOSYSTEM, Wilmington, MA, USA) using the real-time cycler Quantstudio (THERMO FISHER SCIENTIFIC).
(§5) The efficiency of large-scale deletion was analyzed by qPCR 3 days after treatment of HEK293T cells with the selected shRNA (shDCLRE1C-2, -3, or -5)+UnCas12f1 and a pair of gRNA (F142/R52), and the results are shown in FIG. 10A.
For shDCLRE1C and shXRCC6 among the shRNAs selected in Example 4, experiments were conducted in the same manner as in Example 7.1 using the two shRNAs alone, in combination, or one shRNA thereof in two copies, to analyze the efficiency of large-scale deletion of E51.

[5] = test system: DCLRE1C; assay: DCLRE1C mRNA level by qPCR in HEK293T cells (Example 7.1); format: cell-based, human; conditions: 3 days, compared among shDCLRE1C-2, -3, -5, FIG. 10B
Experimental: as §1, §5

[6] = test system: Dystrophin Exon 51, E51; assay: Whole genome sequencing (WGS) analysis of E51 deletion efficiency (Example 8); format: cell-based, human; conditions: HEK293T cells, UnCas12f1 + gRNA pair F142/R52, 5 days after transfection, shRNA in two copies (shDC-3×2), FIG. 11
Experimental: HEK293T cells were transfected with UnCas12f1, a pair of gRNA (F142/R52), and shRNA, and then harvested 5 days after transfection. Genomic DNA was purified using a gDNA prep kit (Maxwell® RSC Cultured Cells DNA, PROMEGA, AS1620). 400 to 500 ng of genomic DNA was fragmented, and libraries were prepared using the MGIEasy FS DNA Library Prep. Kit (MGI Tech) according to the manufacturer's instructions. The libraries were then subjected to WGS using DNBSEQ-T7 (MGI Tech). Sequence reads were mapped to the human genome reference standard, GRCh38. Large-scale deletion efficiency was analyzed by counting reads mapped to the deleted region between a pair of gRNAs, and counts per million (CPM) was calculated. The percentage of deletion was calculated based on the difference in CPM between the sample and the control.
HEK293T cells were transfected with UnCas12f1, a pair of gRNA (F142/R52), and shRNA, and then harvested 5 days after transfection. gDNA was prepared therefrom for WGS that is performed to verify large-scale deletion efficiency. To compare the degree of deletion between the two gRNAs which is induced at both sides of E51, reads were mapped to the reference standard sequence and counting was performed within the deleted region. The data were presented as CPM (Count Per Million) along with each read count. […]

[7] = test system: DCLRE1C; assay: qRT-PCR of mRNA expression in AC16 cells transfected with candidate shRNAs (Example 12.1); format: cell-based, human; conditions: 5 ug, 3 days, among the five shDCLRE1C shRNAs, FIG. 17
Experimental: as §1
Candidate shRNAs for six genes known to be involved in the NHEJ repair pathway were transfected into previously prepared AC16 cells at a dose of 5 ug, and incubation was performed for 3 days. Then, the cells were harvested and qRT-PCR was used to measure the mRNA expression levels of the genes. The results are shown in FIG. 15 (ATM1 and XRCC4), FIG. 16 (XLF-1 and XRCC6), and FIG. 17 (LIG4 and DCLRE1C). From the results, the optimal shRNAs were selected. Scrambled indicates the control shRNA.

[8] = test system: DCLRE1C; assay: qRT-PCR of shRNA-mediated inhibition of NHEJ component gene expression (Example 3); format: cell-based, human; conditions: AC16 cells, 5 μg shRNA plasmid, 3 days after transfection, FIG. 6
Experimental: as §1, §2

[9] = test system: Artemis; assay: Western blot of shRNA-mediated inhibition of NHEJ component gene expression (Example 4); format: cell-based, human; conditions: AC16 cells, conditions as Example 3, FIG. 7
Experimental: as §3, §4

[10] = test system: Dystrophin Exon 51, E51; assay: E51 deletion by UnCas12f1 with shRNA, agarose gel of PCR-amplified E51 region and band intensity analysis (Examples 5, 6); format: cell-based, human; conditions: HEK 293T cells, Image J analysis of FIG. 8, comparison between shRNAs, FIG. 9
Experimental: A pair of guide RNAs for the targets F142 and R52 as shown in Table 14 was used to induce E51 deletion. In order to accurately find the optimal shRNA for a large-scale deletion strategy, comparison of the deletion efficiency altered by the selected shRNAs was conducted in HEK 293T cells. The E51 deletion efficiency was measured on an agarose gel in which the PCR-amplified E51 region was decomposed. From the results, it can be seen that treatment with shRNA increases the E51 deletion efficiency caused by UnCas12f1 .
To compare the large-scale deletion efficiency between various treatments with shRNA, intensity analysis was conducted on the deletion band (Del) and the non-deletion band (WT) in FIG. 8, and the relative values were calculated using Image J software.

[11] = test system: XRCC6; assay: qRT-PCR of shRNA-mediated inhibition of NHEJ component gene expression (Example 3); format: cell-based, human; conditions: AC16 cells, 5 μg shRNA plasmid, 3 days after transfection, FIG. 6
Experimental: as §1, §2

[12] = test system: KU70; assay: Western blot of shRNA-mediated inhibition of NHEJ component gene expression (Example 4); format: cell-based, human; conditions: AC16 cells, conditions as Example 3, FIG. 7
Experimental: as §3, §4

[13] = test system: XLF; assay: qRT-PCR of shRNA-mediated inhibition of NHEJ component gene expression (Example 3); format: cell-based, human; conditions: AC16 cells, 5 μg shRNA plasmid, 3 days after transfection, FIG. 6
Experimental: as §1, §2

[14] = test system: XLF; assay: Western blot of shRNA-mediated inhibition of NHEJ component gene expression (Example 4); format: cell-based, human; conditions: AC16 cells, conditions as Example 3, FIG. 7
Experimental: as §3, §4

[15] = test system: LIG4; assay: qRT-PCR of shRNA-mediated inhibition of NHEJ component gene expression (Example 3); format: cell-based, human; conditions: AC16 cells, 5 μg shRNA plasmid, 3 days after transfection, FIG. 6
Experimental: as §1, §2

[16] = test system: DNA ligase IV; assay: Western blot of shRNA-mediated inhibition of NHEJ component gene expression (Example 4); format: cell-based, human; conditions: AC16 cells, conditions as Example 3, FIG. 7
Experimental: as §3, §4

[17] = test system: ATM1; assay: qRT-PCR of shRNA-mediated inhibition of NHEJ component gene expression (Example 3); format: cell-based, human; conditions: AC16 cells, 5 μg shRNA plasmid, 3 days after transfection, FIG. 6
Experimental: as §1, §2

[18] = test system: ATM1; assay: Western blot of shRNA-mediated inhibition of NHEJ component gene expression (Example 4); format: cell-based, human; conditions: AC16 cells, conditions as Example 3, FIG. 7

## GAAUCCACCUUUGUUUCUGA (sense GAAUCCACCUUGUUUCUGA; part of shRNA hairpin, further chemistry not given here) [XRCC4-3]
[1]
  mRNA expression of NHEJ component gene XRCC4: most effective
[2]
  inhibition of XRCC4 expression by Western blot: effectively reduced expression of the target genes

## GAGCUGGGAGUUCAGGUUCA (listed as RNA, chemistry not given here) [shDclre1c-12]
[3]
  Dclre1c mRNA level: greatest decrease

## GCACCGCAAGCCUUCUAUA (listed as RNA, chemistry not given here) [shDclre1c-3]
[4]
  deletion level (efficiency of large-scale deletion of E51): highest deletion level
[5]
  DCLRE1C mRNA level: most effectively downregulates DCLRE1C expression
[6]
  mapped reads in the deleted region (CPM): decreased

## GCAGAAUUCUUCCCAGUCAUUCAAGAGAUGACUGGGAAGAAUUCUGC (short hairpin RNA, further chemistry not given here) [shDCLRE1C5]
[7]
  mRNA expression inhibition efficiency (DCLRE1C): highest mRNA expression inhibition efficiency

## GCAGAGCUCUCCUUUCACA (sense GCAGAGCUCUCGUUUCACA; part of shRNA hairpin, further chemistry not given here) [DCLRE1C-3]
[8]
  mRNA expression of NHEJ component gene DCLRE1C: most effective
[9]
  inhibition of DCLRE1C (Artemis) expression by Western blot: effectively reduced expression of the target genes
[10]
  large-scale deletion efficiency (relative intensity of deletion band vs non-deletion band): most effective

## GCAGAGCUCUCGUUUCACAUUCAAGAGAUGUGAAACGAGAGCUCUGC (short hairpin RNA, further chemistry not given here) [shDCLRE1C3]
[7]
  mRNA expression inhibition efficiency (DCLRE1C): highest mRNA expression inhibition efficiency

## GCAGCAUUGUGCAGAUACA (listed as RNA, chemistry not given here) [XRCC6-1]
[11]
  mRNA expression of NHEJ component gene XRCC6: most effective
[12]
  inhibition of XRCC6 (KU70) expression by Western blot: effectively reduced expression of the target genes

## GCAUGAGUCUGGCAUUACA (listed as RNA, chemistry not given here) [XLF-1]
[13]
  mRNA expression of NHEJ component gene XLF: most effective
[14]
  inhibition of XLF expression by Western blot: effectively reduced expression of the target genes

## GCAUGAUCCUUCUGUAGGA (listed as RNA, chemistry not given here) [LIG4-5]
[15]
  mRNA expression of NHEJ component gene LIG4: most effective
[16]
  inhibition of LIG4 (DNA ligase IV) expression by Western blot: effectively reduced expression of the target genes

## GGACAAAGCUGACUACAGAUUCAAGAGAUCUGUAGUCAGCUUUGUCC (short hairpin RNA, further chemistry not given here) [shDCLRE1C2]
[7]
  mRNA expression inhibition efficiency (DCLRE1C): highest mRNA expression inhibition efficiency

## GGAGCUGAUUGUAGCAACA (listed as RNA, chemistry not given here) [ATM-3]
[17]
  mRNA expression of NHEJ component gene ATM: most effective
[18]
  inhibition of ATM expression by Western blot: effectively reduced expression of the target genes
